These results are taken from patent US11161846B2, “Substituted pyrazolo[4,3-b]pyridines and their use as GluN2B receptor modulators” (JANSSEN PHARMACEUTICA NV, priority 2019, dated 2021).

Data set [1] addresses T1, human GluN1/GluN2B NMDA receptors (Homo sapiens, UniProt Q05586+Q13224).
T1 construct: expressed in transfected cells
Description: Calcium flux (FLIPR) assay on cloned human NR1/GluN2B ion channels expressed in mammalian cells, standard assay. In kind it is cell-based. Conditions: glutamate ~EC40 and 10 μM glycine, stable cell line with Tet-On induced expression. A digest of the protocol:
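Tet-On-induced stable mammalian line loaded with Calcium 5 dye (0.5 mM MgCl2 loading buffer), then assayed in pH 7.4 buffer with 137 mM NaCl, 4 mM KCl, 2 mM CaCl2. Compound was added for 5 min, then glutamate (~EC40) plus 10 µM glycine for 5 min. FLIPR fluorescence was normalized to control wells.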

Data set [2] is described as follows: Liver microsomal stability (extraction ratio). In kind it is in vitro ADME. Conditions: test compound 1 μM; 0.5 mg/mL liver microsomes, NADPH, 37° C.; species not given (method: mouse, rat, and human). As to the method: Protocol for Liver Microsomal Stability (Extraction Ratio)
Liver Microsomal Stability.
Microsomal stability studies (Chrovian et al, “1H-Pyrrolo[3,2-b]pyridine GluN2B-Selective Negative Allosteric Modulators”. ACS Med Chem Lett. 2019 Jan. 10; 10(3):261-266) were conducted on a Biomek® FX Robotic Liquid Handling Workstation (Beckman Coulter, Brea, Calif.), which consists of a 96-channel pipette head, a 12-position workstation deck, and a plate incubator. Test compounds (1 μm) were spiked in a reaction mix consisting of 100 mM potassium phosphate buffer (pH 7.4), 3 mM MgCl2, and 0.5 mg/mL liver microsomes from mouse, rat, and human (BD Gentest). The reaction was brought to 37° C. and initiated by adding NADPH to a final concentration of 1 mM. After mixing on the plate deck, 50 μL aliquots were excised from the reaction plate at 0, 5, 10, 20, 40, and 60 min and quenched with four volumes of acetonitrile spiked with […] of the internal standard phenytoin. Quenched plates were centrifuged at 5700 rpm for 10 min at 4° C., and supernatant was diluted 1:3 in water before LC/MS/MS analysis. The compound half-lives were derived from plots of the ln of percent remaining compound over time to determine the intrinsic clearance. The predicted hepatic clearance was derived from the intrinsic clearance value using equations from the well-stirred model (Current Drug Metabolism, 2008, 9, 940-951), where no correction was made plasma protein binding and the blood to plasma concentration ratio was assumed to be one. The extraction ratio (ER) was calculated by dividing the predicted hepatic clearance by species blood flow (Q), where Q is 90, 55, and 21.7 mL/min/kg for mouse, rat and human, respectively.
In general terms: Liver microsomes are vesicles of endoplasmic reticulum, rich in cytochrome P450 enzymes.

T1 sequence (Q13224 27-1484, other chains not shown): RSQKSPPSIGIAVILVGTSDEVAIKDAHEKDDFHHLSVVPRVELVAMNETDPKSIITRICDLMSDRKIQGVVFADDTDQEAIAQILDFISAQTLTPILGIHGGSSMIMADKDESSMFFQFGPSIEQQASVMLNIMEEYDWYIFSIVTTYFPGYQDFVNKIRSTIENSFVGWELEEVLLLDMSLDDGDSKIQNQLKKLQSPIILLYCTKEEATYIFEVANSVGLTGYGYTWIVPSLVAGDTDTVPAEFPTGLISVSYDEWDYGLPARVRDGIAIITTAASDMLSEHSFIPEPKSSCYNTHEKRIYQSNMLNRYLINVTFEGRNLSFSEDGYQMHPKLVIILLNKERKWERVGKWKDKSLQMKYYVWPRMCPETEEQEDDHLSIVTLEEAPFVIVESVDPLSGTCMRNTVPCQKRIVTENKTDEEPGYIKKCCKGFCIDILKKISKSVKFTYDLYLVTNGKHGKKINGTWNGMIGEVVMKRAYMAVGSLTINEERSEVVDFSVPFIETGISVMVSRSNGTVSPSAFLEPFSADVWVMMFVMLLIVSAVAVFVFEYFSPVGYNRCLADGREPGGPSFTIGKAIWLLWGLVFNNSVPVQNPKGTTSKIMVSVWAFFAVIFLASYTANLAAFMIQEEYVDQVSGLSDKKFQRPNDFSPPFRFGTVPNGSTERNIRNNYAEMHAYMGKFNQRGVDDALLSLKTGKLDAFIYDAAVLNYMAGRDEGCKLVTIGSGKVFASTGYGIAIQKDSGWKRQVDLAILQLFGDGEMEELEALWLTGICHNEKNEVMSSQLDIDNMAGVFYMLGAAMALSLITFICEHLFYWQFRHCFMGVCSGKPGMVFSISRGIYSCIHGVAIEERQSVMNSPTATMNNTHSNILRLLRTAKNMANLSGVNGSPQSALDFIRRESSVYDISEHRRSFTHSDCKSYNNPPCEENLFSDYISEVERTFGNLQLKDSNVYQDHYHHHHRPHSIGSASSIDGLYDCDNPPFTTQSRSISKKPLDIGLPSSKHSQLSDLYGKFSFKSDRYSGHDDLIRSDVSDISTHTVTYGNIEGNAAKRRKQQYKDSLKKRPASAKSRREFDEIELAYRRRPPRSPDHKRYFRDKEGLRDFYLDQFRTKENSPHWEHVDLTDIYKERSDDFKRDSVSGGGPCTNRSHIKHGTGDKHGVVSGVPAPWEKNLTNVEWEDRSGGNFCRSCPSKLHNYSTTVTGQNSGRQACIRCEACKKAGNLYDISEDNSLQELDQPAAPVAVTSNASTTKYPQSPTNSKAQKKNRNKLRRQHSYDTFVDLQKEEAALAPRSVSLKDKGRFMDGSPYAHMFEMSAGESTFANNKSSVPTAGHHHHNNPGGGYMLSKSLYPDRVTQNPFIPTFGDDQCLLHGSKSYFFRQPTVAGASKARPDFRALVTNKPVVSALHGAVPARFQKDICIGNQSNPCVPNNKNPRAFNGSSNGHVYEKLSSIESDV

For orientation: IC50 means the point on the concentration scale where inhibition reaches its midpoint. Turning to `Cc1c(F)ccc(-c2cnc3cnn(CC(=O)C4CC4)c3c2)c1C` [Example 78, 1-Cyclopropyl-2-[6-(4-fluoro-2,3-dimethyl-phenyl)pyrazolo[4,3-b]pyridin-1-yl]ethanone], the IC50 in data set [1] is 85 nM. For the same compound, the “Extraction Ratio @ 1 μM” value in data set [2] came out at 0.52.

Take `CC[S+]([O-])Cn1ncc2ncc(-c3ccc(F)c(C(F)F)c3)cc21` (single isomer, unassigned) [Example 85, (R*)-6-(3-(Difluoromethyl)-4-fluorophenyl)-1-((ethylsulfinyl)methyl)-1H-pyrazolo[4,3-b]pyridine]: the concentration for half-maximal inhibition (IC50) in data set [1] was 66 nM. The “Extraction Ratio @ 1 μM” value in data set [2] turned out to be 0.46.

For the compound `CC(=O)Cn1ncc2ncc(-c3ccc(F)c(OC(F)F)c3)cc21` [Example 25, 1-[6-[3-(Difluoromethoxy)-4-fluoro-phenyl]pyrazolo[4,3-b]pyridin-1-yl]propan-2-one], the IC50 in data set [1] was 34 nM. Further, in data set [2], the “Extraction Ratio @ 1 μM” value was found to be 0.64.

With `CC[S+]([O-])Cn1ncc2ncc(-c3cccc(C(F)(F)F)c3F)cc21` (racemic) [Example 86, (RS)-1-(Ethylsulfinylmethyl)-6-[2-fluoro-3-(trifluoromethyl)phenyl]pyrazolo[4,3-b]pyridine], the IC50 in data set [1] worked out at 80 nM. Moreover, in data set [2], the “Extraction Ratio @ 1 μM” value is 0.50.

`CCC(=O)Cn1ncc2ncc(-c3cccc(C(F)(F)F)c3F)cc21` [Example 38, 1-[6-[2-Fluoro-3-(trifluoromethyl)phenyl]pyrazolo[4,3-b]pyridin-1-yl]butan-2-one]: the IC50 in data set [1] came out at 30 nM. Moreover, the “Extraction Ratio @ 1 μM” value in data set [2] is 0.61.

Consider `O=C(Cn1ncc2ncc(-c3cccc(C(F)F)c3)cc21)C1CC1` [Example 61, 1-Cyclopropyl-2-[6-[3-(difluoromethyl)phenyl]pyrazolo[4,3-b]pyridin-1-yl]ethanone], for which the IC50 in data set [1] turned out to be 12 nM. For the same compound, the “Extraction Ratio @ 1 μM” value in data set [2] came out at 0.43.

Regarding `CCC(=O)Cn1nc(C)c2ncc(-c3ccc(F)c(C(F)F)c3)cc21` [Example 36, 1-(6-(3-(Difluoromethyl)-4-fluorophenyl)-3-methyl-1H-pyrazolo[4,3-b]pyridin-1-yl)butan-2-one], the IC50 in data set [1] came out at 27 nM. Moreover, the “Extraction Ratio @ 1 μM” value in data set [2] is 0.72.

Take `CCN1CC(Cn2ncc3ncc(-c4ccc(F)c(C(F)F)c4)cc32)OC1=O` (racemic) [Example 131, (RS)-5-[[6-[3-(Difluoromethyl)-4-fluoro-phenyl]pyrazolo[4,3-b]pyridin-1-yl]methyl]-3-ethyl-oxazolidin-2-one]: in data set [1], the IC50 was 193 nM. In data set [2], the “Extraction Ratio @ 1 μM” value is 0.58.

For `CCC(=O)Cn1ncc2ncc(-c3cc(F)c(F)c(F)c3)cc21` [Example 42, 1-[6-(3,4,5-Trifluorophenyl)pyrazolo[4,3-b]pyridin-1-yl]butan-2-one], in data set [1], the IC50 was 27 nM. Further, the “Extraction Ratio @ 1 μM” value in data set [2] stood at 0.63.

On to `CCC(=O)Cn1ncc2ncc(-c3ccc(F)c(C(F)F)c3)cc21` [Example 4, 1-[6-[3-(Difluoromethyl)-4-fluoro-phenyl]pyrazolo[4,3-b]pyridin-1-yl]butan-2-one], for which the IC50 in data set [1] was found to be 10 nM. Besides, in data set [2], the “Extraction Ratio @ 1 μM” value is reported as 0.66.
